Assay results as given in patent US20250230165A1, “HETEROCYCLIC COMPOUNDS FOR USE IN THE TREATMENT OF CANCER” (ARTIOS PHARMA LIMITED, priority 2021, published 2025).

target: T1, Human Polθ polymerase domain (aa1820-2590) (Homo sapiens, UniProt O75417); test: Polθ Polymerase Domain Kinact/KI Assay (PicoGreen); format: biochemical; details: 0.8 nM Polθ, 100 nM DNA substrate, kobs vs [I] fit for 2-step covalent inhibitor
T1 construct: Human Polθ polymerase domain (aa1820-2590) was expressed in E. coli; made in house; host or cells: E. coli
T1 sequence (O75417 1820-2590): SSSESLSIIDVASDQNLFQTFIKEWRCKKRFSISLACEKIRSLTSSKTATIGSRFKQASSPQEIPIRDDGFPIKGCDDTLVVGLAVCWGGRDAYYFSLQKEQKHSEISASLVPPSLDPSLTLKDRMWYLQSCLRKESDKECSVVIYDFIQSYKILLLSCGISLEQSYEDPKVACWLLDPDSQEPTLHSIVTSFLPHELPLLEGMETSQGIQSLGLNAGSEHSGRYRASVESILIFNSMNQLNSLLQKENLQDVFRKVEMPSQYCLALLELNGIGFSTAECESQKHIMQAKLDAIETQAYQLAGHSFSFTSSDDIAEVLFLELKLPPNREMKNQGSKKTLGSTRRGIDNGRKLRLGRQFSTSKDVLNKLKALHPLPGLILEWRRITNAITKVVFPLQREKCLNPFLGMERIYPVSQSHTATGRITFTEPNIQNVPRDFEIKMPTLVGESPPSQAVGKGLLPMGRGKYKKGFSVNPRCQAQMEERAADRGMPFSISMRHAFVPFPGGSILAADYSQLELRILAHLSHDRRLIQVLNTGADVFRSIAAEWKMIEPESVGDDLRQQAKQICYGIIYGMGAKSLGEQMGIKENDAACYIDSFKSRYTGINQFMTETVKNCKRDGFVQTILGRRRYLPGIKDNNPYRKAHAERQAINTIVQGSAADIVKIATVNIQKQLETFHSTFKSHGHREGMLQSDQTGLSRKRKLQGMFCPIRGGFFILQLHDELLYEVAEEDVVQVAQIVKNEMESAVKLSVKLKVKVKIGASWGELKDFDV
Summary of the method: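 Covalent inhibitors were tested against E. coli-expressed enzyme (0.8 nM final) with 100 nM annealed DNA substrate and […] in Tris pH 7.5 buffer, 1% DMSO. Reactions were EDTA-quenched over a 0–60 min time course and product DNA detected by PicoGreen fluorescence.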

| Kinact/Kl [M⁻¹ s⁻¹] | Compound |
| --- | --- |
| 230000 | C=CC(=O)N1Cc2c(CN3C[C@H]4CC(=O)N(c5cc(C(F)(F)F)cc(C)n5)[C@@H]4C(=O)N(C)c4cccc(C)c43)nn(C)c2C1 [Example 317, (3aR,11aS)-5-((5-acryloyl-1-methyl-1,4,5,6-tetrahydro-pyrrolo[3,4-c]pyr-azol-3-yl)methyl)-6,10-dimethyl-1-(6-methyl-4-(trifluoro-methyl)pyridin-2-yl)-1,3a,4,5,10,11a-hexahydro-2H-benzo[b]pyrrolo [2,3-f][1,4]diazo-cine-2,11(3H)-dione] |
| 3.64e+06 | C=C(CN(C)C)C(=O)N1CC(CCCN2C[C@H]3CC(=O)N(c4cc(C(F)(F)F)cc(C)n4)[C@@H]3C(=O)N(C)c3cccc(C)c32)C1 [Example 327, (3aR,11aS)-5-(3-(1-(2-((dimethylamino)-methyl)acryloyl)-azetidin-3-yl)propyl)-6,10-dimethyl-1-(6-methyl-4-(trifluoro-methyl)pyridin-2-yl)-1,3a,4,5,10,11a-hexa-hydro-2H-benzo[b] pyrrolo[2,3-f][1,4] diazocine-2,11(3H)-dione] |

The remaining lines, values behind:

| Compound | Kinact/Kl [M⁻¹ s⁻¹] |
| --- | --- |
| C=C(CN(C)C)C(=O)N1CC2(CC(CN3C[C@H]4CC(=O)N(c5cc(C(F)(F)F)cc(C)n5)[C@@H]4C(=O)N(C)c4cccc(C)c43)C2)C1 [Example 328, (3aR,11aS)-5-((2-(2-((dimethylamino)-methyl)acryloyl)-2-azaspiro[3.3]heptan-6-yl)methyl)-6,10-dimethyl-1-(6-meth-yl-4-(trifluorometh-yl)pyridin-2-yl)-1,3a, 4,5,10,11a-hexa-hydro-2H-benzo[b] pyrrolo[2,3-f][1,4] diazocine-2,11(3H)-dione] | 4.11e+06 |
| Cc1cc(C(F)(F)F)cc(N2C(=O)C[C@@H]3CN(C[C@H]4C[C@H](NC(=O)/C=C/CN(C)C)C4)c4c(C)cccc4N(C)C(=O)[C@H]32)n1 [Example 331, (E)-N-((1R,3r)-3-(((3aR,11aS)-6,10-dimethyl-1-(6-meth-yl-4-(trifluorometh-yl)pyridin-2-yl)-2,11-dioxo-1,2,3,3a, 4,10,11,11a-octa-hydro-5H-benzo[b]pyrrolo[2,3-f][1,4]diazocin-5-yl)meth-yl)cyclobutyl)-4-(dimethylamino)but-2-enamide] | 1.85e+06 |
| Cc1cc(C(F)(F)F)cc(N2C(=O)C[C@@H]3CN(C[C@H]4C[C@@H](NC(=O)/C=C/CN(C)C)C4)c4c(C)cccc4N(C)C(=O)[C@H]32)n1 [Example 332, (E)-N-((1S,3s)-3-(((3aR,11aS)-6,10-dimethyl-1-(6-methyl-4-(trifluoromethyl)-pyridin-2-yl)-2,11-dioxo-1,2,3,3a,4,10, 11,11a-octahydro-5H-benzo[b]pyrrolo [2,3-f][1,4]diazocin-5-yl)methyl)cyclo-butyl)-4-(dimethyl-amino)but-2-enamide] | 1.3e+06 |
| (3aR,11aS)-5-(2-((3R/S,9aS/R)-8-acryloyl-3-methyl-4-oxooctahydro-2H-pyrazino[1,2-a]pyrazin-2-yl)ethyl)-6-fluoro-10-methyl-1-(6-methyl-4-(trifluoromethyl)pyridin-2-yl)-1,3a,4,5,10,11a-hexahydro-2H-benzo[b]pyrrolo[2,3-f][1,4]diazocine-2,11(3H)-dione [Example 107] | 420000 |
| (3aR,11aS)-5-(2-((3S/R,9aS/R)-8-acryloyl-3-methyl-4-oxooctahydro-2H-pyrazino[1,2-a]pyrazin-2-yl)ethyl)-6-fluoro-10-methyl-1-(6-methyl-4-(trifluoromethyl)pyridin-2-yl) 1,3a,4,5,10,11a-hexahydro-2H-benzo[b]pyrrolo[2,3-f][1,4]diazocine-2,11(3H)-dione [Example 110] | 1e+06 |
